Measured values published in ChEMBL document CHEMBL1909046, “DrugMatrix in vitro pharmacology data”.

Experiments:
[1] = target: Protein kinase C alpha type (Homo sapiens, UniProt P17252); type: cell-based; settings: sf9;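 also: inhibition of PKCalpha kinase activity measured in an enzyme assay with histone as the phosphorylation substrate; in other assays of this panel Not Active means under 50% inhibition at 10 µM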
[2] = target: T1, C-X-C chemokine receptor type 2 (Homo sapiens, UniProt P25025); type: cell membranes, Membrane; settings: cho-k1; also: in other assays of this panel Not Active means under 50% inhibition at 10 µM
T1 sequence (P25025 whole entry): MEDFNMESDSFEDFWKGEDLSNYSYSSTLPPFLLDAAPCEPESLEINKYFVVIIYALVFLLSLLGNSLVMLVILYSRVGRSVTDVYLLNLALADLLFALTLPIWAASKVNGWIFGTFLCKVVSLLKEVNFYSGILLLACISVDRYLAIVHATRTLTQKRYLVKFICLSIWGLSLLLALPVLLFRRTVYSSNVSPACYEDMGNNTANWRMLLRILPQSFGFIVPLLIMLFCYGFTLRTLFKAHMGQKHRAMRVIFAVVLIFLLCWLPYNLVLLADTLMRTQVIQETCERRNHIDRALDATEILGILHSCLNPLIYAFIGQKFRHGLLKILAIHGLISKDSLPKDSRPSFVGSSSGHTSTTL

Melanocortin receptor 4 = Melanocortin receptor 4 (Homo sapiens, UniProt P32245); type: cell membranes, Membrane; settings: hek293; also: in other assays of this panel Not Active means under 50% inhibition at 10 µM
Sequence of Melanocortin receptor 4 (P32245 whole entry): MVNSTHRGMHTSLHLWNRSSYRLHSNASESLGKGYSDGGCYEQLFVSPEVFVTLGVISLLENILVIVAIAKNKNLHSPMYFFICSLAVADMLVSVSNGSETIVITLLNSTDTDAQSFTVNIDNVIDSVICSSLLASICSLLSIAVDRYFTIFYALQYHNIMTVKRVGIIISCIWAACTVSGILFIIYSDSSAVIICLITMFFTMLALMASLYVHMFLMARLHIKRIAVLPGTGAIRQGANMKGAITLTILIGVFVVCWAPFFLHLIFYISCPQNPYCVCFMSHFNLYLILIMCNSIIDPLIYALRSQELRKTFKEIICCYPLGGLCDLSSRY

Histamine H2 receptor = Histamine H2 receptor (Homo sapiens, UniProt P25021); type: cell membranes, CHO-K1, Membrane; also: in other assays of this panel Not Active means under 50% inhibition at 10 µM
Sequence of Histamine H2 receptor (P25021 whole entry): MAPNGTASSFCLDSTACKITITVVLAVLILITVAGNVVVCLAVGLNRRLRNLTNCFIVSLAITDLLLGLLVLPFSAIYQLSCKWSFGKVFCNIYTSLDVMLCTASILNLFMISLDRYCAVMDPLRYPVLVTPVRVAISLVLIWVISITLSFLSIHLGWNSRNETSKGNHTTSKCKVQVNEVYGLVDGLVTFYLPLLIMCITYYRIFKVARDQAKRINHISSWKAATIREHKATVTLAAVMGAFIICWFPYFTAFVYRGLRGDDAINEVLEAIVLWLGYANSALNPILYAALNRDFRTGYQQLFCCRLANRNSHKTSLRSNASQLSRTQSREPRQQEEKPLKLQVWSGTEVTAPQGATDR

[3] = target: T2, Cholecystokinin receptor type A (Homo sapiens, UniProt P32238); type: cell membranes, Membrane; settings: 1321-n1; also: in other assays of this panel Not Active means under 50% inhibition at 10 µM
T2 sequence (P32238 whole entry): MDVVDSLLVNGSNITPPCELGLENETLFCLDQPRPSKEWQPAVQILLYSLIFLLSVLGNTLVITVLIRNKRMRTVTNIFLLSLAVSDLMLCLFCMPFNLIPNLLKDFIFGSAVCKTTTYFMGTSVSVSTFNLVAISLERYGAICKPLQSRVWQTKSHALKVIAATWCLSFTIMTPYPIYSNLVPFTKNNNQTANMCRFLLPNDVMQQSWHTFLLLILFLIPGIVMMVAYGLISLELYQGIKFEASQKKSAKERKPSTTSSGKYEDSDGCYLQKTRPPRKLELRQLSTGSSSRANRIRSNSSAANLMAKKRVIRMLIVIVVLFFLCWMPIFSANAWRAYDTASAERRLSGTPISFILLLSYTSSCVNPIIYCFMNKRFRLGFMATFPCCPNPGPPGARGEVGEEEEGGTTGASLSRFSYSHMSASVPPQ

Glucocorticoid receptor = target: T3, Glucocorticoid receptor (Homo sapiens, UniProt P04150); settings: hela s3; also: in other assays of this panel Not Active means under 50% inhibition at 10 µM
T3 sequence (P04150 whole entry): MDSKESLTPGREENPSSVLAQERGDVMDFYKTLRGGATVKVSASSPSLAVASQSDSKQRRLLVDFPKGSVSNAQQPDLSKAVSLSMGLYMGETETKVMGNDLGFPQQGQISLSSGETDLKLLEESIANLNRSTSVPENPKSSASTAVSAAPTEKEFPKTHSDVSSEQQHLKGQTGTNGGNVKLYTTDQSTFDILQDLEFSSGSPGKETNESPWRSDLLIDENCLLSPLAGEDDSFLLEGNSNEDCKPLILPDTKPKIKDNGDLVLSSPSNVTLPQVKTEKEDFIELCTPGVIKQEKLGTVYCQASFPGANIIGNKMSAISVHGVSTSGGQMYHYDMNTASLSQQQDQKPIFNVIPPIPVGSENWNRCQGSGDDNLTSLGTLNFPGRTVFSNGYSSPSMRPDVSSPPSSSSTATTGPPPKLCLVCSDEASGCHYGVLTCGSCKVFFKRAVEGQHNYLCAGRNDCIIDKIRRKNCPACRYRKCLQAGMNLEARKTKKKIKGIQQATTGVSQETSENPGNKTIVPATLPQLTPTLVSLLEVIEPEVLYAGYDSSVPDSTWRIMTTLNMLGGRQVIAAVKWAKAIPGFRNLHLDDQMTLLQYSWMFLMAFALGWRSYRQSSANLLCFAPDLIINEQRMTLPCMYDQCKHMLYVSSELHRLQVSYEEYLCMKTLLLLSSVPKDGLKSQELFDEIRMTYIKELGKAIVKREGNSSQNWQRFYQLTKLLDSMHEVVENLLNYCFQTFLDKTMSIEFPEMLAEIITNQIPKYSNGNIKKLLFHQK

Neutrophil elastase = target: T4, Neutrophil elastase (Homo sapiens, UniProt P08246); type: tissue-based
T4 sequence (P08246 whole entry): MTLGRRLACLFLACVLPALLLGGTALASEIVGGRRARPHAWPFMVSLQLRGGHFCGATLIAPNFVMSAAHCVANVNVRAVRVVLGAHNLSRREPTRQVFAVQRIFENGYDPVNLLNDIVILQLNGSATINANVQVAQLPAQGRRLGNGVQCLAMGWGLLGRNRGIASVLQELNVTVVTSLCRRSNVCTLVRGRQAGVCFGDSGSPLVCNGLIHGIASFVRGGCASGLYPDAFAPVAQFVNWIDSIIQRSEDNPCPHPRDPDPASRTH

[4] = DRUGMATRIX: Purinergic P2X radioligand binding (ligand: [3H] alpha, beta-Methylene-ATP); type: cell membranes, Oryctolagus cuniculus, New Zealand albino, Urinary bladder, Membrane; settings: Not Active = under 50% inhibition at 10 µM
Glycine receptor = Glycine receptor (Rattus norvegicus, UniProt P22771+P24524+P07727+P20781); type: cell membranes, Wistar, Spinal cord, Membrane; also: in other assays of this panel Not Active means under 50% inhibition at 10 µM
[5] = target: Receptor tyrosine-protein kinase erbB-2 (Homo sapiens, UniProt P04626); experiment: biochemical; type: cell-based, Insect cells; settings: insect cells
Sequence of Receptor tyrosine-protein kinase erbB-2 (P04626 whole entry): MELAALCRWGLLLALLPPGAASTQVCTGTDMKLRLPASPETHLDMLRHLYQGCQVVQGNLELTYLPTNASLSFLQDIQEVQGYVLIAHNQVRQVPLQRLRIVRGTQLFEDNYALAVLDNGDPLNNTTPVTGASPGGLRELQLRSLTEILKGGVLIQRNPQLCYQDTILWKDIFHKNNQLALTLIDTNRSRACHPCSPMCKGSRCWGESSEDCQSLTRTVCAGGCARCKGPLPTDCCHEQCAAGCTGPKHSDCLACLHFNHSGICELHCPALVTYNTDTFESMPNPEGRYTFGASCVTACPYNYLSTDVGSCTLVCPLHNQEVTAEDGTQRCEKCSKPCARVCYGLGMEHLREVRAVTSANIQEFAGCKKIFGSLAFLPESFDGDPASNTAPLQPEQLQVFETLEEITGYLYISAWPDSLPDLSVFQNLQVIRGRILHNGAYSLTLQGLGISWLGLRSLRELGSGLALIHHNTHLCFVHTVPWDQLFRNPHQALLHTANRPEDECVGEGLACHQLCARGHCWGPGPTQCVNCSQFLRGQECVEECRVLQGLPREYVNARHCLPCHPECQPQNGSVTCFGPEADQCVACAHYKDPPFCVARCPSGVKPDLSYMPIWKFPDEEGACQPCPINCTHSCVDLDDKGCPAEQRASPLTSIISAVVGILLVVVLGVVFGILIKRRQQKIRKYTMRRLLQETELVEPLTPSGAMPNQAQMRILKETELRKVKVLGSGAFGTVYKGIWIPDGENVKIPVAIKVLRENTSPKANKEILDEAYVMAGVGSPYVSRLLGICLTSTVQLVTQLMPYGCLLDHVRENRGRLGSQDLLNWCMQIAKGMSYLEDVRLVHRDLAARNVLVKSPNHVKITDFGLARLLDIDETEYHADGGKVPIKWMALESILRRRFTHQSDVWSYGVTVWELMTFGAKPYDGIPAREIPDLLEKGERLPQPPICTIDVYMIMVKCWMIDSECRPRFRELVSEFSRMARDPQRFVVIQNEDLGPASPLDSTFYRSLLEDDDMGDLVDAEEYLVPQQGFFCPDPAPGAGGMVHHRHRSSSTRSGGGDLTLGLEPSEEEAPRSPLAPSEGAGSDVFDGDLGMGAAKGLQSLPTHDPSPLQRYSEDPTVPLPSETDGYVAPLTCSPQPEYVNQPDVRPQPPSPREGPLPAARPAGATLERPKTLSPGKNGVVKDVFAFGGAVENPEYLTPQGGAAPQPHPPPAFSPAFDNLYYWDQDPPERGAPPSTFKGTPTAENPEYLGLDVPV

D(1A) dopamine receptor = D(1A) dopamine receptor (Homo sapiens, UniProt P21728); experiment: DRUGMATRIX: Dopamine D1 radioligand binding (ligand: [3H] SCH-23390); type: cell membranes, Membrane; settings: cho; Not Active = under 50% inhibition at 10 µM
Sequence of D(1A) dopamine receptor (P21728 whole entry): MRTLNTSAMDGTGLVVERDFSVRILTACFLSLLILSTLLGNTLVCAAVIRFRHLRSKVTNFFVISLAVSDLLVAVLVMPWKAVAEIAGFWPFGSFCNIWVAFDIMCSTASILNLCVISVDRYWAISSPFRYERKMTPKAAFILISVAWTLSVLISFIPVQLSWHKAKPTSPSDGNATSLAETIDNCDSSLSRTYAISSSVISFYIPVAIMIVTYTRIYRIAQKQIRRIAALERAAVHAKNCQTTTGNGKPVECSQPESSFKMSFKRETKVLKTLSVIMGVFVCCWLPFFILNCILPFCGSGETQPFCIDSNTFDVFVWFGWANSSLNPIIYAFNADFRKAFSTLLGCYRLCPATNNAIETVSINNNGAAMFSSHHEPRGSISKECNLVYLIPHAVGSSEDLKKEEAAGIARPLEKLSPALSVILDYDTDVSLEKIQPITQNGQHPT

D(3) dopamine receptor = D(3) dopamine receptor (Homo sapiens, UniProt P35462); experiment: DRUGMATRIX: Dopamine D3 radioligand binding (ligand: [3H] Spiperone); type: cell membranes, CHO, Membrane; settings: cho
Sequence of D(3) dopamine receptor (P35462 whole entry): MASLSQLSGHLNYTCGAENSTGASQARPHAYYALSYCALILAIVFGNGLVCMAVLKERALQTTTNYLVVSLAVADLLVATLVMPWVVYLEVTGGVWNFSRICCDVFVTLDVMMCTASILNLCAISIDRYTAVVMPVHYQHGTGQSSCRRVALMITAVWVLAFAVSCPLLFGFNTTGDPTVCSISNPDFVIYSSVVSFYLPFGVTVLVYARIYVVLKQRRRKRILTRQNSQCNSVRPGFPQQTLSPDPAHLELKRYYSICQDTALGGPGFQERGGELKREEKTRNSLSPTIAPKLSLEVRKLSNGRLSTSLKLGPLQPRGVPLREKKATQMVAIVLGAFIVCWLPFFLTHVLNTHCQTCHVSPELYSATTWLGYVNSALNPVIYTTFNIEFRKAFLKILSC

[6] = target: Sodium-dependent dopamine transporter (Homo sapiens, UniProt Q01959); experiment: DRUGMATRIX: Dopamine Transporter radioligand binding (ligand: [125I] RTI-55); type: cell membranes, CHO-K1, Membrane; settings: cho-k1; Not Active = under 50% inhibition at 10 µM
Sequence of Sodium-dependent dopamine transporter (Q01959 whole entry): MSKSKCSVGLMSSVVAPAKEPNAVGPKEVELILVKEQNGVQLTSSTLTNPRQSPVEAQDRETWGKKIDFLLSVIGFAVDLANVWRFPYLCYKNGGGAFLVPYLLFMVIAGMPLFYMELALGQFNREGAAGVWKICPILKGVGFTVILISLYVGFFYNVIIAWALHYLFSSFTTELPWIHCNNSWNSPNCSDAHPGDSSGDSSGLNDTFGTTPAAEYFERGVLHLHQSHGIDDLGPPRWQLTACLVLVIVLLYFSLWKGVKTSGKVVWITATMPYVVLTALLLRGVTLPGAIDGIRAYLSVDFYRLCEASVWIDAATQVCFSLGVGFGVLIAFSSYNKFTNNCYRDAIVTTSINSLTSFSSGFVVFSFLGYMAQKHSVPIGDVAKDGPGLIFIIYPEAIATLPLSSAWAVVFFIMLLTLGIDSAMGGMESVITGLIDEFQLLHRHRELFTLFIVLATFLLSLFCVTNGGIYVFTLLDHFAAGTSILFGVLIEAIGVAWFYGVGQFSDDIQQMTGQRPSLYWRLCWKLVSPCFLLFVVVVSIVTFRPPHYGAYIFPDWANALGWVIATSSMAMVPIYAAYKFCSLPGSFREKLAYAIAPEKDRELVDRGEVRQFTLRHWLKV

Row | Compound | IC50 [1] | IC50 [2] | IC50 (Melanocortin receptor 4) | IC50 (Histamine H2 receptor; cho-k1) | IC50 [3] | IC50 (Glucocorticoid receptor) | IC50 (Neutrophil elastase) | IC50 [4] | Ki [4] | IC50 (Glycine receptor) | IC50 [5] | IC50 (D(1A) dopamine receptor) | IC50 (D(3) dopamine receptor) | IC50 [6] | IC50 (Histamine H2 receptor; read-out: IC50) | Ki (Histamine H2 receptor; read-out: Ki)
1 | CC1=C(CC(=O)O)c2cc(F)ccc2/C1=C\c1ccc([S+](C)[O-])cc1 (configuration not stated) | Not Active | Not Active | Not Active | Not Active | Not Active | Not Active | Not Active | Not Active | Not Active | Not Active | Not Active | Not Active | Not Active | Not Active | – | –
2 | N[C@H](CSC(=S)NCc1ccccc1)C(=O)O | Not Active | Not Active | Not Active | Not Active | Not Active | Not Active | Not Active | Not Active | Not Active | Not Active | Not Active | Not Active | Not Active | Not Active | – | –
3 | Clc1ccc2c(c1)C(N1CCNCC1)=Nc1ccccc1O2 [AMOXAPINE] | Not Active | Not Active | Not Active | Not Active | Not Active | Not Active | Not Active | – | – | Not Active | Not Active | – | – | Not Active | – | –
4 | COc1cc2c(c(OC)c1OC)-c1ccc(OC)c(=O)cc1[C@@H](NC(C)=O)CC2 [COLCHICINE] | Not Active | Not Active | Not Active | Not Active | Not Active | Not Active | Not Active | – | – | Not Active | Not Active | – | Not Active | Not Active | – | –
5 | CN1CCC(=C2c3ccccc3C=Cc3ccccc32)CC1 [CYPROHEPTADINE] | Not Active | Not Active | Not Active | – | Not Active | Not Active | Not Active | – | – | Not Active | Not Active | – | – | Not Active | 198 nM | 195 nM
6 | CC/C(=C(/CC)c1ccc(O)cc1)c1ccc(O)cc1 [DIETHYLSTILBESTROL] | Not Active | Not Active | Not Active | Not Active | Not Active | – | Not Active | – | – | Not Active | Not Active | – | – | – | – | –
7 | C=CCN1CC[C@]23c4c5ccc(O)c4O[C@H]2C(=O)CC[C@@]3(O)[C@H]1C5 [NALOXONE] | Not Active | Not Active | Not Active | Not Active | Not Active | – | Not Active | – | – | Not Active | Not Active | – | Not Active | Not Active | – | –
8 | CC(C)NCC(O)COc1cccc2ccccc12 (configuration not stated) [PROPRANOLOL] | Not Active | Not Active | Not Active | Not Active | Not Active | – | Not Active | – | – | Not Active | Not Active | – | Not Active | – | – | –
9 | O=C(c1ccc(OCCN2CCCCC2)cc1)c1c(-c2ccc(O)cc2)sc2cc(O)ccc12 [RALOXIFENE] | Not Active | Not Active | Not Active | Not Active | Not Active | Not Active | Not Active | Not Active | Not Active | Not Active | Not Active | – | – | – | – | –
10 | CC(C)(C)c1ccc(C(O)CCCN2CCC(C(O)(c3ccccc3)c3ccccc3)CC2)cc1 (configuration not stated) [TERFENADINE] | Not Active | Not Active | Not Active | Not Active | Not Active | Not Active | Not Active | Not Active | Not Active | Not Active | Not Active | – | – | – | – | –
11 | CC(=O)CC(c1ccccc1)c1c(O)c2ccccc2oc1=O (configuration not stated) [WARFARIN] | Not Active | Not Active | Not Active | Not Active | Not Active | – | Not Active | Not Active | Not Active | Not Active | Not Active | Not Active | Not Active | Not Active | – | –
